Measurements from BindingDB's records for doi:10.7270/Q2W37TT2 (Johns Hopkins Ion Channel Center, 2011).
pIC50: −log10 of the molar value.

Biological target: Potassium voltage-gated channel subfamily KQT member 2 (Rattus norvegicus, UniProt O88943)
Experiment: KCNQ2 potassium channel inhibitors, dose response, cell-based, automated electrophysiology, set II, rat KCNQ2 (AID 588637)

Chain of Potassium voltage-gated channel subfamily KQT member 2 (O88943 whole entry): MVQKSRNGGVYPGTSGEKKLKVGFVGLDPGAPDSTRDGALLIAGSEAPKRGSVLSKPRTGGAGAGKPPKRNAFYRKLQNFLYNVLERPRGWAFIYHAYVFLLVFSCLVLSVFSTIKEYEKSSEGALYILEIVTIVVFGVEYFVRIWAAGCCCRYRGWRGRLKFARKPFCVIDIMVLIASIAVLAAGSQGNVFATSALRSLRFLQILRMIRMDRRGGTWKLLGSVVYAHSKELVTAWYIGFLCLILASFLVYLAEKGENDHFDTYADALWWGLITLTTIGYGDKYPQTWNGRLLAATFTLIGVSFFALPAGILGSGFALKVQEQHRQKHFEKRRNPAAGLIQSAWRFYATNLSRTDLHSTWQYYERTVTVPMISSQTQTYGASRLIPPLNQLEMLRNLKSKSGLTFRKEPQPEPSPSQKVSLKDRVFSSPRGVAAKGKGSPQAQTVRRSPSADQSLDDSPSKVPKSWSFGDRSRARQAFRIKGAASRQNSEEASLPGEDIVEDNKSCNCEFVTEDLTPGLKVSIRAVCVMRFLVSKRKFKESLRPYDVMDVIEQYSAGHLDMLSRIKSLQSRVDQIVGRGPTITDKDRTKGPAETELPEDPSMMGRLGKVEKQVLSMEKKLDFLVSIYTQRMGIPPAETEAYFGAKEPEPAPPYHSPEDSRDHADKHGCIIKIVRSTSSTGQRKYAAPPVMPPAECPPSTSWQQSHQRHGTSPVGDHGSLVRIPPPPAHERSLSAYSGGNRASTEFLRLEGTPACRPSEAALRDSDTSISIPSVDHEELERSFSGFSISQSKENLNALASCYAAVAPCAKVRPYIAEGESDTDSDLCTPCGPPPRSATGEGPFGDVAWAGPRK

| SMILES | pIC50 |
| --- | --- |
| CC(N=Nc1nc(N2CCCCCC2)nc(N2CCCCCC2)n1)c1ccccc1 (configuration not stated) [(1E)-1-phenylethanone (4,6-diazepan-1-yl-1,3,5-triazin-2-yl)hydrazone] | 5.79 |
| COc1ccc(-[n+]2c(-c3ccccc3)cc(-c3ccc(C)cc3)cc2-c2ccccc2)cc1 | 4.95 |
